Assay results: US12503503B2, “Bispecific anti-VEGF/ANG2 antibody formulation” (Hoffmann-La Roche Inc., priority 2018, dated 2025)
Read-outs that look alike come from different tables or passages of the source.

How the values were obtained:
cynomolgus monkeys = settings: 14 days apart
Method: A toxicity study in cynomolgus monkeys was conducted in which methionine (10 mM) was a component of the vehicle and of the formulated test article CrossMAb VEGFang2-0016 (faricimab). In this study, a total of 12 animals (6 males/6 females) were treated intravitreal with 50 μL/eye two times, 14 days apart. The left eyes were treated with the vehicle (containing 10 mM methionine) and the right eyes were treated with the formulated test article CrossMAb VEGFang2-0016 (faricimab), also containing 10 mM methionine.
(§1) Three studies (in cynomolgus monkeys and in New Zealand White rabbits) were conducted in which methionine (5-25 mM) was a component of the vehicle, administered intravitreally (also 50 μL/eye) up to six times, 14 days apart.

[1] = test system: New Zealand White rabbits; settings: methionine (5-25 mM) in vehicle, intravitreal 50 μL/eye up to six times, 14 days apart
Method: as §1

TIE2 = TIE2 (Homo sapiens, UniProt Q02763); settings: Maisonpierre et al., Science 277 (1997); read-out: affinity to TIE2 (Kd); cited from earlier work
Chain of TIE2 (Q02763 23-1124, species assumed): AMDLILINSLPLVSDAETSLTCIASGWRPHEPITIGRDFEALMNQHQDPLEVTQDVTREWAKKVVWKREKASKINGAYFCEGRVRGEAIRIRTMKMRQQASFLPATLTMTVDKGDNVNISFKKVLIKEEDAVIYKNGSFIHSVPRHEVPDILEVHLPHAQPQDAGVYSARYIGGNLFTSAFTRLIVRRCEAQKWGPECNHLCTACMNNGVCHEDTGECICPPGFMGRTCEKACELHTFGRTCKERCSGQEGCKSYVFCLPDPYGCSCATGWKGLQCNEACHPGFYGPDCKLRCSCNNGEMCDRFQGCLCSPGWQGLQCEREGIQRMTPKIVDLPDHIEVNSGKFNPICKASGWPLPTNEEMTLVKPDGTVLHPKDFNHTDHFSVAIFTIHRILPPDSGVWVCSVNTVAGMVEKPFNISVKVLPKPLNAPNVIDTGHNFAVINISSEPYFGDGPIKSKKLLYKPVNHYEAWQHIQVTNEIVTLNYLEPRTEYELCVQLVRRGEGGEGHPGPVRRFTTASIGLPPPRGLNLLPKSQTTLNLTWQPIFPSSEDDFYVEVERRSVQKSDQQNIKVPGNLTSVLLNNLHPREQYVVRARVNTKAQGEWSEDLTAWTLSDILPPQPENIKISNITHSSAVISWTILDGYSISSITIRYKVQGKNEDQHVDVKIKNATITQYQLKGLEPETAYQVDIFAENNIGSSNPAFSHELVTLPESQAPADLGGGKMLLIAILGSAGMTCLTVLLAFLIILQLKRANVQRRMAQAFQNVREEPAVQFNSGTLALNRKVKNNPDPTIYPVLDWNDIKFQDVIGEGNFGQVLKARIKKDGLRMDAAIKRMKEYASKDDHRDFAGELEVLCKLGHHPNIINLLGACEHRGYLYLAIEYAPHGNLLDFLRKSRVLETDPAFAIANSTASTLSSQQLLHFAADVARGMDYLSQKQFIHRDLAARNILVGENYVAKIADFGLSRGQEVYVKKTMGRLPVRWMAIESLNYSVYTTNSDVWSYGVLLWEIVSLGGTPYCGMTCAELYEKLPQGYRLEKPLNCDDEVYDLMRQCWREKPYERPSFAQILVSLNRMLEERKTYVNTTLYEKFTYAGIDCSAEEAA

| ocular effects of methionine (cynomolgus monkeys; 10 mM methionine in vehicle and formulated faricimab, intravitreal 50 μL/eye two times) | ocular effects of methionine (cynomolgus monkeys; methionine (5-25 mM) in vehicle, intravitreal 50 μL/eye up to six times) | ocular effects of methionine [1] | Molecule | Kd (TIE2) |
| --- | --- | --- | --- | --- |
| no ocular effects | no ocular effects | no ocular effects | CSCC[C@H](N)C(=O)O [methionine] |  |
|  |  |  | Ang-1: angiopoietin-1, ligand of TIE2 (protein, UniProt Q15389 16-498, looked up) Angiopoietin-1: HIGCSNQRRSPENSGRRYNRIQHGQCAYTFILPEHDGNCRESTTDQYNTNALQRDAPHVEPDFSSQKLQHLEHVMENYTQWLQKLENYIVENMKSEMAQIQQNAVQNHTATMLEIGTSLLSQTAEQTRKLTDVETQVLNQTSRLEIQLLENSLSTYKLEKQLLQQTNEILKIHEKNSLLEHKILEMEGKHKEELDTLKEEKENLQGLVTRQTYIIQELEKQLNRATTNNSVLQKQQLELMDTVHNLVNLCTKEGVLLKGGKREEEKPFRDCADVYQAGFNKSGIYTIYINNMPEPKKVFCNMDVNGGGWTVIQHREDGSLDFQRGWKEYKMGFGNPSGEYWLGNEFIFAITSQRQYMLRIELMDWEGNRAYSQYDRFHIGNEKQNYRLYLKGHTGTAGKQSSLILHGADFSTKDADNDNCMCKCALMLTGGWWFDACGPSNLNGMFYTAGQNHGKLNGIKWHYFKGPSYSLRSTTMMIRPLDF | 3 nM |
